# Values joined by “and” are separate entries in the source; they are usually repeats but may differ in a detail not shown here. Equal entries are not always repeated.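 Tested at 5 concentrations; 48 h exposure; 96-well plates; endpoints linearly interpolated, else capped at highest concentration. GI50 marks 50% less growth. TGI denotes the concentration required for complete inhibition of growth.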 Where a SMILES comes first, the peptide text is derived from it. The star is where a group is joined. Trt = c1ccc(C(c2ccccc2)(c2ccccc2)*)cc1; Cbz = O=C(OCc1ccccc1)*
# Tested on: MDA-MB-468 breast
# Experiment: NCI-60 cell line screen, 48 h
Compound,GI50,TGI
C=C(C)[C@@H]1CC[C@]2(CO)CC[C@]3(C)[C@H](CC[C@@H]4[C@@]5(C)CC[C@H](NCO)C(C)(C)[C@@H]5CC[C@]43C)[C@@H]12,0.854 µM,1.71 µM
Cc1ccc(-c2n[nH]c(=O)c3noc(-c4ccc(C)cc4)c23)cc1,0.37 µM,4.88 µM
Oc1ccc(Cl)cc1/C=N\NC(=S)N/N=C/c1cc(Cl)ccc1O,1.76 µM,7.35 µM
O=C(/C=C/c1cccc2ccccc12)Nc1ncc(Cc2ccccc2)s1,0.665 µM,> 24.9 µM
COc1cc(/C=N/NC(=O)c2ccccc2Nc2cccc(C(F)(F)F)c2)cc(OC)c1OC,1.75 µM,11.8 µM
Nc1nc(N)c2c(n1)NC(c1sc(Cl)nc1Cl)CC(c1ccc3c(c1)OCO3)=N2 (stereo unspecified),1.65 µM,13.3 µM
Cc1cc(Nc2nc(-c3ccncc3)nc3ccccc23)n[nH]1,6.81 µM,> 100 µM
COc1cccc2c1cc1c3c(cc4c(c32)OCO4)C(=O)N1,2.04 µM,6.22 µM
Cc1c(Cl)cccc1NC(=O)c1sc2nc3c(cc2c1N)CCCC3,0.394 µM,> 100 µM
O=C(NOCCO)c1cc(CN2OCCCC2=O)c(F)c(F)c1Nc1ccc(I)cc1F,14.2 µM and > 10 µM,66.7 µM and > 10 µM
COc1ccc(C2=Nc3c/c(=C\c4c(O)[nH]c5cc(Cl)ccc45)ccc3=N2)cc1,3.06 µM,10.4 µM
Cc1c(Cl)c(C)c(Cc2c(C)c(Cl)c(C)c(Cl)c2O)c(O)c1Cl,1.82 µM,8.4 µM
C=CC(C)(O)CC/C=C(\CO)C(=O)OC1C(C)OC(O[C@](C)(C=C)CC/C=C(\CO)C(=O)O[C@H]2C[C@@]3(C(=O)OC4OC(CO)C(O)C(O)C4OC4OC(C)C(OC5OC(CO)C(O)C5O)C(OC5OC(CO)C(O)C(O)C5O)C4O)C(CC2(C)C)C2=CCC4[C@@]5(C)CC[C@H](OC6OC(COC7OC(C)C(O)C(O)C7OC7OCC(O)C(O)C7O)C(O)C(O)C6NC(C)=O)C(C)(C)C5CC[C@@]4(C)[C@]2(C)C[C@H]3O)C(O)C1O (stereo partly specified),0.189 µM,0.848 µM
O=C(C=C=Nc1ccccc1)C(=O)N=C=Cc1ccccc1,2.1 µM,4.93 µM
COc1ccc(-c2n/c(=C\c3c(O)[nH]c4ccccc34)cc3c2=Nc2ccccc2-3)cc1,0.368 µM,1.43 µM
C/C(=N\NC(=O)CSc1nc2sc3c(c2c(=O)n1-c1ccccc1)CCC(C)C3)c1ccc(Cl)cc1 (stereo unspecified),1.55 µM,5.92 µM
CCCN1CCC=C(c2ccc(Nc3nc(Nc4ccccc4C(N)=O)c4cc[nH]c4n3)c(C)c2)C1,> 14.6 µM,> 25 µM
O=C1/C(=C\c2ccccc2)C2OCC=C3CN4CCC56c7ccccc7N1C5C2C3CC46 (stereo unspecified),3.31 µM,26.1 µM

Compound,GI50,TGI
COC(=O)C(CSC(c1ccccc1)(c1ccccc1)c1ccccc1)NC(=O)C(CC(N)=O)NC(=O)OCc1ccccc1 (stereo not drawn) (Cbz-Asn-Cys(Trt)-OMe; configuration not given here),3.13 µM,14.6 µM
O=C(Nc1nc2ccccc2s1)c1cc(-c2ccc(F)cc2)n2nc(-c3ccccc3)cc2n1,5.18 µM,36 µM
NC(=O)c1ccc(N(C(N)=O)c2c(F)cccc2F)nc1-c1ccc(F)cc1F,> 100 µM,> 100 µM
CCN(CC)Cc1cc(Nc2c3ccccc3nc3cc(Cl)ccc23)ccc1O,1.5 µM,3.06 µM
H-QIYKKYRTWYRKAWKVLGKV-NH2,10.9 µM,41.9 µM
Nc1c(C(=O)Nc2cccc3ccccc23)sc2nc3c(cc12)C(=O)CCC3,0.195 µM,> 45 µM
COc1ccc(C(=O)c2cc3c(N)c(C(=O)Nc4cccc(OC)c4)sc3nc2C)cc1,0.396 µM,
Cc1cc2nc3c4ccc(Br)cc4n(CCN(C)C)c3nc2cc1C,1.21 µM,2.91 µM
O=C(CCCCCCCCC(=O)N/N=C\c1cc(Cl)ccc1O)N/N=C\c1cc(Cl)ccc1O,1.44 µM,7.36 µM
COc1cc(OC)c(/C=C/S(=O)(=O)Cc2ccc(OC)c(NCC(=O)NO)c2)c(OC)c1,0.0293 µM,> 100 µM
O=C(Nc1cccc(C(F)(F)F)c1)c1cc2ccccc2cc1O,2.2 µM,> 51.6 µM
C=C(C)[C@@H]1CC[C@]2(C(=O)NC(C)=O)CC[C@]3(C)[C@H](CC[C@@H]4[C@@]5(C)CCCNC(C)(C)[C@@H]5CC[C@]43C)[C@@H]12,1.6 µM,3.1 µM
Cn1cc(C2=C(c3cn(CCCCC(=N)N)c4ccccc34)C(=O)NC2=O)c2ccccc21,9.81 µM,> 25 µM
Cn1cc(-c2nc(N[C@@H]3CCCC[C@@H]3N)c(F)c3c2C(=O)NC3)cn1,13 µM and 16.9 µM,44.9 µM and 69.9 µM
CN=C(N)N/N=C(\C)c1ccc2c(c1)Cc1ccccc1-2,1.79 µM,4.4 µM
COc1cc(Cn2c(-c3ccccc3)cc3c2-c2oncc2CC3)cc(OC)c1,0.211 µM,0.745 µM
CCCCCCCCCCSC(=N)N,1.66 µM,3.2 µM
CCOC(=O)c1c(NCC(=O)Nc2ccc(Br)cc2)sc2c1CCCC2,1.95 µM,4.53 µM

# Reference: PubChem BioAssay (NCI)
